{
  "source": "ChEMBL document CHEMBL1165939",
  "about": "“A structure-activity relationship study elucidating the mechanism of sequence-specific collagen recognition by the chaperone HSP47” (Bioorg Med Chem, 2010)",
  "target": "T1, Serpin H1 (Mus musculus, UniProt P19324)",
  "T1 sequence (P19324 whole entry)": "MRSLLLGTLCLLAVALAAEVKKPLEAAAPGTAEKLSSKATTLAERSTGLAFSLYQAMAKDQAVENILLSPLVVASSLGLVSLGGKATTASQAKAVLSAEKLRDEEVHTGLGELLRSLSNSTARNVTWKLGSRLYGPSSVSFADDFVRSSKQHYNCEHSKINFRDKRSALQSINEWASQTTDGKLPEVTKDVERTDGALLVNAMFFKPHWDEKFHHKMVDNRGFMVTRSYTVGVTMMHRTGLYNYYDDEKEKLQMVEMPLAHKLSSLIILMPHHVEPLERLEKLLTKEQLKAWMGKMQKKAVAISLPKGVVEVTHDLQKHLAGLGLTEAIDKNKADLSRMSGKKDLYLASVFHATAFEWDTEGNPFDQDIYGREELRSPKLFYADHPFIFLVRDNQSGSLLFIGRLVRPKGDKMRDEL",
  "experiment": "Binding affinity to mouse recombinant HSP47 expressed in Escherichia coli JM109 after 10 mins by surface plasmon resonance assay",
  "data": [
    {"smiles": "N=C(N)NCCC[C@H](NC(=O)[C@@H]1CCCN1C(=O)CNC(=O)[C@H](CCC(=O)O)NC(=O)[C@@H]1CCCN1C(=O)CNC(=O)[C@@H]1CCCN1C(=O)[C@@H]1CCCN1C(=O)CNC(=O)[C@@H]1C[C@@H](O)CN1C(=O)[C@@H]1CCCN1)C(=O)NCC(=O)N1CCC[C@H]1C(=O)N[C@@H](CCCNC(=N)N)C(=O)NCC(=O)N1CCC[C@H]1C(=O)N1CCC[C@H]1C(=O)NCC(=O)N1CCC[C@H]1C(=O)N1CCC[C@H]1C(=O)NCC(=O)N1CCC[C@H]1C(=O)N1CCC[C@H]1C(=O)NCC(=O)N1CCC[C@H]1C(=O)N1CCC[C@H]1C(=O)NCC(N)=O", "values": [
      {"measurement": "IC50", "value": "> 100", "unit": "µM"}
    ]}
  ]
}
